{
  "source": "patent US20060177821A1",
  "about": "“Association of the h2 haplotype of the p2y12 receptor with an increased risk for thrombosis and peripheral arterial disease” (priority 2002, published 2006)",
  "key": {"platelets": {"system": "platelets", "assay": "ADP-induced platelet aggregation in platelet-rich plasma (photometric aggregometry)", "format": "cell-based, human", "conditions": "2 μM ADP; for maximal aggregation: mean±SEM; for maximal aggregation in response to ADP (median): citrated PRP, average of visits 1 and 2", "description": "Venous blood was collected between 8:00 and 10:00 am, after an overnight fast, in tubes containing either 0.105 M sodium citrate (1 vol/9 vol) (BD Vacutainer®, Becton Dickinson, Le Pont de Claix, France) or 50 μg/mL lepirudine (Refludan®, Hoechst, Paris, France) using a 19-gauge needle and no tourniquet. The first 2 ml of blood was discarded. Platelet-rich plasma (PRP) was obtained by centrifugation at 1000 rpm for 10 min at room temperature. Autologous platelet-poor plasma, obtained by further centrifugation at 4000 rpm for 15 min, was used to adjust the platelet count of PRP to 250×10^9/L.\nAggregation studies were performed within 2 hours after blood collection. Aggregation was measured at 37° C. by using a photometric method on a four-channel aggregometer (Regulest® Amneville, France). A 280-μL aliquot of PRP was incubated for 3 min at 37° C. and then was stirred at 1100 rpm for 2 min before adding 20 μL of saline or ADP (Sigma-Aldrich, St Quentin Fallavier, France) at 1, 2 or 5 μM (final concentration). The platelet aggregation response was recorded for 5 min."}, "[1]": {"system": "iloprost-stimulated cAMP accumulation in platelets (P2Y12 regulation of adenylate cyclase)", "assay": "Inhibition by ADP of iloprost-stimulated cAMP accumulation in platelets (EIA)", "format": "cell-based", "conditions": "Homo sapiens, Platelet, citrated PRP, read-out: inhibition of iloprost-stimulated cAMP formation; for inhibition at 1 µM: 1 μM ADP; for inhibition at 2 µM: 2 μM ADP; for inhibition at 5 µM: 5 μM ADP", "description": "Platelet cAMP content was measured in 20 selected subjects by incubating 270 μL of PRP with 10 μL of a solution of the stable prostacyclin analog iloprost (20 μg/L, final concentration) (Ilomédine®, Schering-Plough) for 1 min, with stirring, then adding 20 μL of saline or ADP (1, 2 or 5 μM). The reaction was stopped 3 min later by adding 20 μL of 12% trichloroacetic acid. CAMP was then extracted and measured with an enzyme immunoassay (EIA) (Amersham, Pharmacia Biotech, Orsay, France) according to the manufacturer's instructions, without knowledge of the subject's P2Y12 genotype."}, "[2]": {"conditions": "platelets from carriers of the H2 haplotype"}, "[3]": {"conditions": "platelets from non carriers of the H2 haplotype"}},
  "note": "Where two headings read alike, the source gives them in different places.",
  "data": [
    {"smiles": "Nc1ncnc2c1ncn2[C@@H]1O[C@H](COP(=O)(O)OP(=O)(O)O)[C@@H](O)[C@H]1O", "note": "[ADP, adenosine 5′-diphosphate]", "values": [
      {"measurement": "maximal aggregation", "setting": "platelets; citrate-anticoagulated PRP (low Ca++), 10 carriers of the H2 allele", "value": "71.5%±5.2%"},
      {"measurement": "maximal aggregation", "setting": "platelets; citrate-anticoagulated PRP (low Ca++), 10 non carriers of the H2 allele", "value": "50.7%±7.2%"},
      {"measurement": "maximal aggregation in response to ADP (median)", "setting": "platelets; subjects carrying no H2 alleles (H1/H1, n=74)", "value": 34.7, "unit": "%"},
      {"measurement": "maximal aggregation in response to ADP (median)", "setting": "platelets; subjects carrying one H2 allele (H1/H2, n=21)", "value": 67.9, "unit": "%"},
      {"measurement": "maximal aggregation in response to ADP (median)", "setting": "platelets; subjects carrying two H2 alleles (H2/H2, n=3)", "value": 82.4, "unit": "%"},
      {"measurement": "maximal aggregation", "setting": "platelets; hirudin-anticoagulated PRP (physiological Ca++), 10 carriers of the H2 allele", "value": "53.8%±3.9%"},
      {"measurement": "maximal aggregation", "setting": "platelets; hirudin-anticoagulated PRP (physiological Ca++), 10 non carriers of the H2 allele", "value": "42.8%±3.4%"},
      {"measurement": "inhibition at 1 µM", "setting": "[1]; [2]", "value": 31, "unit": "%"},
      {"measurement": "inhibition at 1 µM", "setting": "[1]; [3]", "value": 13, "unit": "%"},
      {"measurement": "inhibition at 2 µM", "setting": "[1]; [2]", "value": 39, "unit": "%"},
      {"measurement": "inhibition at 2 µM", "setting": "[1]; [3]", "value": 31, "unit": "%"},
      {"measurement": "inhibition at 5 µM", "setting": "[1]; [2]", "value": 50, "unit": "%"},
      {"measurement": "inhibition at 5 µM", "setting": "[1]; [3]", "value": 37, "unit": "%"}
    ]}
  ]
}
